Patent publication US20200352947A1, “USE OF SEROTONERGIC DRUGS TO TREAT VIRUS-INDUCED THROMBOCYTOPENIA” (NATIONAL UNIVERSITY OF SINGAPORE, priority 2017, published 2020)

How the values were obtained:
DENV2-infected mice [1] = assay: Platelet counts (thrombocytopenia) in DENV2-infected WT mice; format: in vivo; conditions: mice, 10^6 pfu DENV2 IP; WAY-100135 3 mg/kg, ketanserin 8 mg/kg or sarpogrelate 3 mg/kg; 24 hours post-infection; n=5
Experimental: Platelet counts of DENV2 infected mice. Mice were infected via intraperitoneal route (IP) with 10^6 plaque forming units (pfu) and were given either vehicle (1% DMSO) or ketanserin 8 mg/kg IP. Blood was taken via cheek bleed 24 hours post-infection and platelet counts were measured using an automated hematology analyzer. DENV2 infection induces thrombocytopenia, but ketanserin treatment is able to prevent thrombocytopenia (n=5). Mean values are presented and error bars represent the SEM. P values were determined by Student's unpaired t test; ***P<0.001, ****P<0.0001.
Platelet counts of DENV2 infected mice. Mice were infected IP with 10^6 pfu of DENV2 and were given either vehicle, the 5HT1A antagonist WAY-100135, or either of the 5HT2A antagonists, ketanserin and sarpogrelate. Blood was taken via cheek bleed 24 hours post-infection and platelet counts were measured using an automated hematology analyzer. DENV2 infection induced thrombocytopenia that was able to be prevented through administration of serotonin receptor antagonists (n=5). Mean values are presented and error bars represent the SEM. P values were determined by one-way ANOVA; ***p<0.001, ****P<0.0001.
WT mice were infected via intraperitoneal route (IP) with 10^6 plaque forming units (pfu) of DENV2 and were given either vehicle (1% DMSO) or ketanserin (8 mg/kg) IP. Blood was taken via cheek bleed 24 hours post-infection and platelet counts were measured using an automated hematology analyzer.
One limitation of the experimental protocol in Examples 10 and 11 is that the vehicle used to deliver ketanserin in mice, DMSO, can itself interfere with platelet aggregation [Rosenblum, W. I. & El-Sabban. F. Stroke 13, 35-39 (1982)]. This difference can be observed by comparing the severity of thrombocytopenia in dengue-infected mice between FIGS. 1 and 10. Accordingly, newer serotonin receptor antagonists that are more soluble in saline were tested, to determine whether a similar effect is seen even without the confounding effects of DMSO. Mice were infected IP with 10^6 pfu of DENV2 and were given either vehicle, the 5HT1A antagonist WAY-100135 (3 mg/kg), or one of the 5HT2A antagonists ketanserin (8 mg/kg) or sarpogrelate (3 mg/kg). Blood was taken via cheek bleed 24 hours post-infection and platelet counts were measured using an automated hematology analyzer.

DENV2-infected mice [2] = assay: Platelet counts and platelet activation in DENV2-infected mice pretreated with fluoxetine; format: in vivo; conditions: fluoxetine 20 mg/kg/day in drinking water for 2 weeks, then 10^6 pfu DENV2 IP; 24 and 72 hours; n=5
Experimental: Mice were administered fluoxetine (20 mg/kg/day) or vehicle via drinking water for 2 weeks. Mice were then infected with 10^6 pfu of DENV2 intraperitoneally. At 24 and 72 hours, blood was collected and platelet counts were measured. The reduction in platelet counts and increased platelet activation induced by DENV was prevented by fluoxetine treatment (n=5). Mean values are presented and error bars represent the SEM. P values were determined by one-way ANOVA; *P<0.05, **P<0.01, ***P<0.001, ****P<0.0001.
Fluoxetine, an SSRI, prevents the uptake of serotonin into platelets. Activation of platelets by DENV (FIG. 3), will result in the release of stored serotonin, which can act in a positive feedback loop. Mice were treated with fluoxetine (20 mg/kg/day) or vehicle in drinking water for 2 weeks and infected with 10^6 pfu of DENV IP. At 24 and 72 hours, blood was collected and platelet counts were measured. The reduction in platelet counts and increased platelet activation induced by DENV was inhibited by fluoxetine treatment (FIG. 15).

human platelets = assay: Platelet activation (CD41/CD62P flow cytometry) in stimulated human whole blood; format: cell-based; conditions: 15 min stimulation; CD41/CD62P flow cytometry; n=4
Experimental: (A) Whole blood from healthy human volunteers was isolated and stimulated with DENV2, serotonin, or DENV2+serotonin for 15 min. Cells were then fixed and stained for platelet markers CD41 and CD62P and analyzed by flow cytometry. DENV raised the activation levels of platelets. […] (B) Human whole blood was stimulated with DENV2, mast cells (MCs) or DENV2+MCs in the presence of vehicle or ketanserin (100 nM or 500 nM) for 15 min prior to assessment of platelet activation. […] Mean values are presented and error bars represent the SEM. P values were determined by one-way ANOVA; *P<0.05, ** P<0.01, ***P<0.001, ****P<0.0001, ns: non-significant.
Additionally, products from DENV-stimulated human mast cells promoted platelet activation, dependent on platelet 5HT2A receptor, since this effect was abolished by ketanserin (FIG. 9B). […] Furthermore, ketanserin is effective in reversing DENV-induced human platelet activation.

DENV2-infected Sash mice = assay: Exogenous serotonin in DENV2-infected mast cell-deficient (Sash) mice; format: in vivo; conditions: serotonin 150 mg/kg daily
Experimental: (A) Sash mice were infected with DENV2 and treated with 150 mg/kg of serotonin or vehicle daily. Blood was taken for analysis 3 days post-infection. […] (C) Representative eosin and methylene blue staining of peripheral blood smears day 3 post-infection. Some individual platelets are indicated by arrows. Platelet aggregates are surrounded by a dashed line. Scale bar=25 μm. Means are presented with error bars representing the SEM. P values were determined by Student's unpaired t test; ns: non-significant, **P<0.01, ***P<0.001.

DENV2-infected WT mice = assay: Exogenous serotonin in DENV2-infected and uninfected WT mice; format: in vivo; conditions: serotonin 150 mg/kg daily
Experimental: (A) WT mice were infected with DENV2 (1×10^6 pfu i.p.) and treated with 150 mg/kg of serotonin or vehicle daily. […] (B) Blood of DENV infected mice treated with serotonin or vehicle was isolated and stained for platelet marker CD41 and activation marker CD62P and analyzed by flow cytometry. […] (C) Representative peripheral blood smears, day 3 post-infection, show platelet aggregation (dashed lines), which was more visually apparent following exogenous serotonin treatment compared to DENV infection. Some individual platelets are indicated by arrows. Scale bar=25 μm. Mean values are presented and error bars represent the SEM. P values were determined by Student's unpaired t test; *P<0.05, ns: non-significant.
WT mice were infected with DENV and administered exogenous serotonin to determine if there was an increase in platelet activation mediated by serotonin and if this would worsen thrombocytopenia in vivo.

COc1ccccc1N1CCN(C[C@@H](C(=O)NC(C)(C)C)c2ccccc2)CC1 [WAY-100135, (S)-N-tert-butyl-3-(4-(2-methoxyphenyl)-piperazin-1-yl)-2-phenylpropanamide]
platelet counts (DENV2-induced thrombocytopenia) (DENV2-infected mice [1]): prevented

CNCCC(Oc1ccc(C(F)(F)F)cc1)c1ccccc1 (stereo not shown) [fluoxetine]
increased platelet activation induced by DENV (DENV2-infected mice [2]): inhibited
reduction in platelet counts induced by DENV (DENV2-infected mice [2]): inhibited

COc1cccc(CCc2ccccc2OCC(CN(C)C)OC(=O)CCC(=O)O)c1 (stereo not shown) [sarpogrelate, 4-[1-(dimethylamino)-3-[2-[2-(3-methoxyphenyl)ethyl]phenoxy]propan-2-yl]oxy-4-oxobutanoic acid]
platelet counts (DENV2-induced thrombocytopenia) (DENV2-infected mice [1]): prevented

NCCc1c[nH]c2ccc(O)cc12 [serotonin]
platelet activation in human whole blood stimulated with DENV2+serotonin (human platelets): significantly enhanced platelet activation over control and DENV groups
circulating platelet counts (DENV2-infected Sash mice; 3 days post-infection): significantly reduced circulating platelet counts compared to vehicle (mock)-treated animals
platelet activation (DENV2-infected Sash mice; 3 days post-infection, n=5-8): increased platelet activation in infected mice compared to vehicle treated controls
platelet aggregates in peripheral blood films (DENV2-infected Sash mice; day 3 post-infection): increased platelet aggregates
platelet aggregates in peripheral blood films (DENV2-infected WT mice; DENV2-infected WT mice, day 3 post-infection): platelet aggregates increased
platelet activation (CD41/CD62P) in infected mice (DENV2-infected WT mice; DENV2-infected WT mice, n=6-12): further increased
platelet counts (thrombocytopenia) in infected mice (DENV2-infected WT mice; WT mice, DENV2 1×10^6 pfu i.p., 3 days post-infection): worsened thrombocytopenia during DENV infection compared to vehicle-treated mice
platelet activation (CD41/CD62P) in uninfected mice (DENV2-infected WT mice; uninfected WT mice): did not result in platelet activation in uninfected mice
platelet counts in uninfected mice (DENV2-infected WT mice; uninfected WT mice): did not affect platelet counts in uninfected WT mice
